Here are results for 19 compounds from patent publication US10906904B2, “ADO-resistant cysteamine analogs and uses thereof” (HORIZON ORPHAN LLC, priority 2015, dated 2021).

Data set [1] can be described thus: Cystine reactivity assay. Also noted: Cystine Reactivity: unit not given here. The following applies: for Cystine Reactivity Assay (30° C.) (%) Mean Value: percentage of 3 mM cysteamine. The procedure:
Cystine reactivity was assessed by incubating 3 mM test compound with 100 nM BODIPY® FL L-Cystine (Life Tech.) at 30° C., pH 7.4 in phosphate buffer. […] Compound cystine reactivity was expressed as a percentage of that of 3 mM cysteamine.
Under resting conditions, the inherent fluorescence of BODIPY® FL L-cystine was very low due to the spatial proximity of the two BODIPY molecules causing quenching. Under chemical reaction (disruption of the S—S bond), the spatial distance was increased, the quenching lost, and measured fluorescence increased. Time (minutes) vs. fluorescence (relative fluorescence units—RFU) was plotted and linear regression analysis was performed to generate a slope value corresponding to the reaction rate in RFU/min and an R2 value.

In data set [2] the target is T1, human recombinant ADO (Homo sapiens, UniProt Q96SZ5).
T1 sequence (Q96SZ5 1-270): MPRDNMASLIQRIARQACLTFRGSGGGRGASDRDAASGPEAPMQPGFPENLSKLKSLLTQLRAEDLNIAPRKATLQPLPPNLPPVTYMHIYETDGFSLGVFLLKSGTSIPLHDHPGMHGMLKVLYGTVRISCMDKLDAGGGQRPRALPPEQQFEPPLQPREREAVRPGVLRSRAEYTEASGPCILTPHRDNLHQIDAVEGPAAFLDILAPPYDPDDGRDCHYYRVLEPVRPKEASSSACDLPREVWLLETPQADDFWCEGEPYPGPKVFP
Format: in vitro ADME. The procedure:
The rate of ADO metabolism was determined by incubating 15 mM test compound with 60 μg/ml human recombinant ADO and 20 nM MitoXpress® O2-sensitive fluorescent probe (Luxcel) at 37° C. in assay buffer/salt in a sealed assay chamber. The initial rate of fluorescence (excitation λ380 nm and emission λ650 nm) increase was used to measure ADO-dependent oxygen depletion activity. The ability of ADO to metabolize compounds and concomitantly consume oxygen was expressed relative to that of 15 mM cysteamine.

Data set [3] deals with cystinotic human fibroblasts. Nature of the data set: Cystine depletion assay. Format: cell-based. The following applies: for Emax: Homo sapiens, Fibroblast, 1 h, relative to cystine depletion by cysteamine (100%) at a similar concentration; for cystine depletion levels (in words): compared to cysteamine; for Cystine depletion: compound at 50 μM or 100 μM, Tables 1-3. The procedure:
The ability of test compounds to deplete cystine from cystinotic human fibroblasts (Coriell) was determined by incubating compounds with cells for 60 min at 37° C., 95% (v/v) air/5% (v/v) CO2 in Minimal Essential Media Eagle. Treated cell samples were subsequently harvested, then homogenized to ensure plasma and lysosomal membrane disruption. Protein was removed by acid precipitation and cystine in the supernatant measured using LC-MS/MS and HILIC chromatography. Protein levels were determined and cystine levels reported as nM per mg/ml protein. Cystine levels after test compound treatment were expressed as a percentage of that of untreated control cells.
Compounds were assayed at a concentration of 50 μM or 100 μM according to the general methods described above.
Cystine depletion levels for the compounds are expressed in Table 4 as a percent relative to the cystine depletion achieved by cysteamine (c.f. cysteamine 100%) at a similar concentration.
Cystine depletion levels for each of the compounds in Table 5 are expressed as a percent relative to the cystine depletion achieved by cysteamine (c.f. cysteamine 100%) at a similar concentration.

[4] abbreviates: Table 5, read-out: Cystine Depletion (%) Mean Value.
The mark [5] stands for this setting: Table 4, read-out: Cystine Depletion (%).

Read-outs that look alike come from different tables or passages of the source. Some results are limits rather than exact numbers.

With `C[C@H](CS)C(=O)N1CCC[C@H]1C(=O)O` [Compound 653], the “Cystine Reactivity Assay (30° C.) (%) Mean Value” in data set [1] (Table 5) is under 50%. The “ADO Metabolism Assay (%) Mean Value” in data set [2] (human) is reported as under 25%. Besides, the Emax in data set [3] (setting [4]) worked out at 23%.
With `CC(C)(S)CN` [Compound 3a], the “Cystine Reactivity” value in data set [1] (Tables 1-3) is listed as 2284. Moreover, the “metabolism by ADO compared to cysteamine (in words)” value in data set [2] is “significantly reduced metabolism by ADO compared to cysteamine”. Also, the ADO metabolism in data set [2] (human, 15 mM) came to 14%. For the same compound, in data set [3], the “cystine depletion levels (in words)” value is reported as “slightly decreased” and the Cystine depletion is given as 32%.
With `CC(CS)Cc1ccccc1` (centres unmarked) [Compound 2403], the “Cystine Reactivity Assay (30° C.) (%) Mean Value” in data set [1] (Table 5) is under 50%. Also, the “ADO Metabolism Assay (%) Mean Value” in data set [2] (human, 15 mM) is listed as under 25%. In data set [3] (setting [4]), the Emax was 19%.
Taken in the same sequence, the figures for `NC1CCCC(S)C1` (centres unmarked) [Compound 145693] were 50-90%, under 25% and 81%.
For `Cn1cc[nH]c1=S` [Compound 1176], in data set [1] (Table 5), the “Cystine Reactivity Assay (30° C.) (%) Mean Value” is under 50%. Besides, in data set [2] (human, 15 mM), the “ADO Metabolism Assay (%) Mean Value” is listed as under 25%. Besides, in data set [3] (setting [4]), the Emax amounted to 10%.
In the same order, the values of `SCC1COCCN1` (centres unmarked) [Compound 145591] are 50-90%, under 25% and 61%.
Taken in the same sequence, the figures for `NC1CC(O)(CS)C1` (centres unmarked) [Compound 149610] were under 50%, under 25% and 15%.
Taken in the same sequence, the figures for `CNC1CC(S)C1` (centres unmarked) [Compound 149608] were under 50%, under 25% and 55%.
With `OCC1(S)CCCNC1` (centres unmarked) [Compound 150730], the “Cystine Reactivity Assay (30° C.) (%) Mean Value” in data set [1] (Table 5) is over 90%. In data set [2] (human, 15 mM), the “ADO Metabolism Assay (%) Mean Value” is under 25%. Further, the Emax in data set [3] (setting [4]) was determined as 14%.
On to `SC12CCN(CC1)CC2` [Compound 42389], for which the “Cystine Reactivity Assay (30° C.) (%) Mean Value” in data set [1] (Table 4) was 50-90%. Besides, the “ADO Metabolism Assay (%) Mean Value” in data set [2] (human, 15 mM) is given as under 25%. The Emax in data set [3] (setting [5]) was 36%.
Regarding `CC(C)(C)N1CCC(S)CC1` [Compound 145584], the “Cystine Reactivity Assay (30° C.) (%) Mean Value” in data set [1] (Table 5) is over 90%. Moreover, the “ADO Metabolism Assay (%) Mean Value” in data set [2] (human, 15 mM) is on record as under 25%. In addition, the Emax in data set [3] (setting [4]) is 0%.
`SCc1ccccn1` [Compound 42213]: the “Cystine Reactivity Assay (30° C.) (%) Mean Value” in data set [1] (Table 4) is over 90%. Further, in data set [2] (human, 15 mM), the “ADO Metabolism Assay (%) Mean Value” is listed as over 75%. Besides, the Emax in data set [3] (setting [5]) amounted to 0%.
In the same order, the values of `SC1CC2(CNC2)C1` [Compound 42611] are over 90%, under 25% and 55%.
For the compound `O=S(=O)([O-])CCS.[Na+]` [Compound 145566], the “Cystine Reactivity Assay (30° C.) (%) Mean Value” in data set [1] (Table 5) was under 50%. Also, in data set [2] (Table 5, relative to 15 mM cysteamine), the “ADO Metabolism Assay (%) Mean Value” was under 25%. In data set [3] (setting [4]), the Emax was found to be 16%.
In the case of `N[C@H]1CC[C@@H](S)CC1` [Compound 42491], the “Cystine Reactivity Assay (30° C.) (%) Mean Value” in data set [1] (Table 4) is under 50%. In addition, the “ADO Metabolism Assay (%) Mean Value” in data set [2] (human, 15 mM) is given as under 25%.
As for `C[C@@H]1CNCC[C@@H]1S` [Compound 42615], the “Cystine Reactivity Assay (30° C.) (%) Mean Value” in data set [1] (Table 4) is listed as under 50%. Moreover, the “ADO Metabolism Assay (%) Mean Value” in data set [2] (human, 15 mM) is under 25%. Moreover, the Emax in data set [3] (setting [5]) worked out at 106%.
As for `CCN(CC)C(=S)SSC(=S)N(CC)CC` [Compound 981], in data set [1] (Table 5), the “Cystine Reactivity Assay (30° C.) (%) Mean Value” is on record as under 50%. In addition, the “ADO Metabolism Assay (%) Mean Value” in data set [2] (human, 15 mM) is given as under 25%. Further, in data set [3] (setting [4]), the Emax was determined as 25%.
With `NC1CC(S)C1` (centres unmarked) [Compound 42209], the “Cystine Reactivity Assay (30° C.) (%) Mean Value” in data set [1] (Table 4) was 59-90%. The “ADO Metabolism Assay (%) Mean Value” in data set [2] (human, 15 mM) is recorded as under 25%. Also, the Emax in data set [3] (setting [5]) came to 99%.
For `CNCCS` [Compound 1a], the “metabolism by ADO compared to cysteamine (in words)” value in data set [2] is “significantly reduced metabolism by ADO compared to cysteamine”. Further, in data set [3], the “cystine depletion levels (in words)” value is recorded as “slightly decreased cystine depletion levels” and the Cystine depletion came to 85%. In addition, the “Cystine depletion ( ) = disulfide efficacy” value in data set [3] (disulfide of the compound, 50 μM or 100 μM) is on record as “(94%)”.
